Values quoted from earlier work in paper PMC3880013, “Toward an Understanding of Agonist Binding to Human Orexin-1 and Orexin-2 Receptors with G-Protein-Coupled Receptor Modeling and Site-Directed Mutagenesis” (Biochemistry, 2013).
Where two headings read alike, the source gives them in different places. Marks after values point to notes of the source that are not given here. Where no end group is shown, it is not given here.

How the values were obtained:
[1] = test system: hOX2 Q134A; parameters: method as in earlier work; details: hOX2 Q134A (3.32) relative to wild type; [Ca2+]i response; ref 37 Malherbe et al.; cited from earlier work
[2] = test system: hOX2 W214A; parameters: method as in earlier work; details: hOX2 W214A (45.54) relative to wild type, [Ca2+]i response, ref 37 Malherbe et al., cited from earlier work
[3] = test system: hOX1 A127T; details: hOX1 A127T (3.33) relative to wild type; [Ca2+]i response; ref 37 Malherbe et al.; cited from earlier work
Text: (§1) Table 1 Comparison of the Effects of Different Mutations in hOX1 and hOX2 on the Binding Potencies of Orexin-A and Orexin-B ^a | column: hOX1 / ratio ^b of Orexin-A

[4] = test system: hOX1 Y348A; details: hOX1 Y348A (7.43) relative to wild type; [Ca2+]i response; ref 37 Malherbe et al.; cited from earlier work
Text: as §1

[5] = test system: hOX1 Q126A; details: hOX1 Q126A (3.32) relative to wild type; [Ca2+]i response; ref 37 Malherbe et al.; cited from earlier work
Text: as §1

[6] = test system: hOX2 F346A; parameters: method as in earlier work; details: hOX2 F346A (7.35) relative to wild type, [Ca2+]i response, ref 37 Malherbe et al., cited from earlier work
[7] = test system: hOX2 I320A; details: hOX2 I320A (6.51) relative to wild type; [Ca2+]i response; ref 37 Malherbe et al.; cited from earlier work
Text: (§2) Table 1 Comparison of the Effects of Different Mutations in hOX1 and hOX2 on the Binding Potencies of Orexin-A and Orexin-B ^a | column: hOX2 / ratio ^b of Orexin-A

[8] = test system: hOX2 Y317F; details: hOX2 Y317F (6.48) relative to wild type; [Ca2+]i response; ref 37 Malherbe et al.; cited from earlier work
Text: as §2

[9] = test system: hOX2 S139A; details: hOX2 S139A (3.37) relative to wild type; [Ca2+]i response; ref 37 Malherbe et al.; cited from earlier work
Text: as §2

[10] = test system: hOX2 T135A; details: hOX2 T135A (3.33) relative to wild type; [Ca2+]i response; ref 37 Malherbe et al.; cited from earlier work
Text: as §2

[11] = test system: hOX2 F228A; details: hOX2 F228A (5.43) relative to wild type; [Ca2+]i response; ref 37 Malherbe et al.; cited from earlier work
Text: as §2

[12] = test system: hOX2 V138A; details: hOX2 V138A (3.36) relative to wild type; [Ca2+]i response; ref 37 Malherbe et al.; cited from earlier work
Text: as §2

[13] = test system: hOX2 Y354A; details: hOX2 Y354A (7.43) relative to wild type; [Ca2+]i response; ref 37 Malherbe et al.; cited from earlier work
Text: as §2

[14] = test system: hOX2 V353A; details: hOX2 V353A (7.42) relative to wild type; [Ca2+]i response; ref 37 Malherbe et al.; cited from earlier work
Text: as §2

[15] = test system: hOX1 H344A; details: cited from earlier work; for ratio EC50(mut)/EC50(WT): hOX1 H344A (7.39) relative to wild type, [Ca2+]i response, ref 37 Malherbe et al.
Text: Other mutations had no major effect on efficacy. || An additional residue that plays a key role in OX receptor agonist binding and activation by Orexin peptides is H^7.39. […] We observed that in OX1, H^7.39 interacts with residues L16 and L20 of helix 1 of OxA (see Figure 6A). […] On the other hand, in OX2, H^7.39 interacts with L20 and not with L16 (see Figure 6B), and ...

[16] = test system: hOX2 Y223A; parameters: method as in earlier work; details: hOX2 Y223A (5.38) relative to wild type, [Ca2+]i response, ref 37 Malherbe et al., cited from earlier work
[17] = test system: hOX1 V130A; details: hOX1 V130A (3.36) relative to wild type, [Ca2+]i response, ref 37 Malherbe et al., cited from earlier work
[18] = test system: hOX2 F227A; details: cited from earlier work; for ratio EC50(mut)/EC50(WT): hOX2 F227A (5.42) relative to wild type, [Ca2+]i response, ref 37 Malherbe et al.
Text: In the case of OX1, F^5.42 interacts with H26 of OxA that, based on the SDM experiments, has an only moderate impact on potency (see Figure 6A). This is in contrast to OX2 in which F^5.42 interacts with key residue I30 (see Figure 6B). Mutation of I30 of OxA to alanine complet ...

[19] = test system: hOX2 T111A; parameters: method as in earlier work; details: hOX2 T111A (2.61) relative to wild type, [Ca2+]i response, ref 37 Malherbe et al., cited from earlier work
[20] = test system: hOX2 D211A; parameters: method as in earlier work; details: hOX2 D211A (45.51) relative to wild type, [Ca2+]i response, ref 37 Malherbe et al., cited from earlier work

For “Orexin-A (QPLPDCCRQKTCSCRLYELLHGAGNHAAGILTL; ends and bridges not checked; cysteine pairing not given here; UniProt O43612 34-66, looked up) [hypothalamic neuropeptide, 33 amino acids, two intramolecular disulfide bonds C6-C12 and C7-C14; natural OX1/OX2 agonist]”, the “ratio EC50(mut)/EC50(WT)” value [1] is listed as 22.3 fold, the “ratio EC50(mut)/EC50(WT)” value [2] is listed as 62.4 ^c fold and the “ratio EC50(mut)/EC50(WT)” value ([2]; listed as OxA) is listed as 62.4 fold. The “ratio EC50(mut)/EC50(WT)” value [3] was 1.8 ^c fold, the “ratio EC50(mut)/EC50(WT)” value [4] was 8.7 ^c fold and the “ratio EC50(mut)/EC50(WT)” value [5] was 2.4 ^c fold. For the same substance, the “ratio EC50(mut)/EC50(WT)” value [6] was 54.5 ^c fold, the “ratio EC50(mut)/EC50(WT)” value ([6]; listed as OxA) was 54.5 fold and the “ratio EC50(mut)/EC50(WT)” value [7] was 0.9 ^c fold. For the same substance, the “ratio EC50(mut)/EC50(WT)” value [8] was 1.3 ^c fold, the “ratio EC50(mut)/EC50(WT)” value [9] was 2.5 ^c fold and the “ratio EC50(mut)/EC50(WT)” value [10] was 0.8 ^c fold. The “ratio EC50(mut)/EC50(WT)” value [11] was 3.0 ^c fold, the “ratio EC50(mut)/EC50(WT)” value [12] was 4.4 ^c fold and the “ratio EC50(mut)/EC50(WT)” value [13] was 3.7 ^c fold. The “ratio EC50(mut)/EC50(WT)” value [14] was 1.9 ^c fold, the “decrease in Emax” value ([15]; OX1 H7.39 (H344) mutated to alanine) was 64.5% and the “ratio EC50(mut)/EC50(WT)” value [15] was 241.1 ^c fold. The “ratio EC50(mut)/EC50(WT)” value ([15]; listed as OxA) was 241.1 fold, the “ratio EC50(mut)/EC50(WT)” value [16] was 183.9 ^c fold and the “ratio EC50(mut)/EC50(WT)” value ([16]; listed as OxA) was 183.9 fold. The “ratio EC50(mut)/EC50(WT)” value [17] was 30.6 ^c fold, the “ratio EC50(mut)/EC50(WT)” value ([17]; listed as OxA) was 30.6 fold and the “efficacy (reduced to)” value ([18]; hOX2 F5.42 (F227) mutated to alanine) was 64.3%. For the same substance, the “ratio EC50(mut)/EC50(WT)” value [18] was 240.3 ^c fold, the “ratio EC50(mut)/EC50(WT)” value ([18]; listed as OxA) was 240.3 fold and the “ratio EC50(mut)/EC50(WT)” value [19] was 243.5 ^c fold. For the same substance, the “ratio EC50(mut)/EC50(WT)” value ([19]; listed as OxA) was 243.5 fold, the “ratio EC50(mut)/EC50(WT)” value [20] was 416.1 ^c fold and the “ratio EC50(mut)/EC50(WT)” value ([20]; listed as OxA) was 416.1 fold.
